The values that follow come from patent US10351548B2, “2-oxo-1,2-dihydropyridine-3-carboxamide compounds and their use as inhibitors of PDK1” (INTERNATIONAL SOCIETY FOR DRUG DEVELOPMENT S.R.L., priority 2015, dated 2019).

Read-outs that look alike come from different tables or passages of the source.

The test system of assay [1] is GSCs isolated from U87MG cells. The experiment in a line: GSC proliferation, MTS assay. The assay is classed as cell-based, human. The note with it: for IC50: Homo sapiens, U-87 MG, 168 h, seven days of treatment, MTS assay; for inhibition of GSC proliferation: starting from four days of treatment. As to the method:
The U87MG cell line was obtained from the National Institute for Cancer Research of Genoa (Italy) and cultured in DMEM 10% FBS and 2 mM glutamine. To isolate GSCs, approximately 2.0×10^6 cells were suspended in 1 mL of a defined serum-free Neural Stem Cell (NSC) medium (Daniele, S., et al., Modulation of A1 and A2B adenosine receptor activity: a new strategy to sensitise glioblastoma stem cells to chemotherapy. Cell death & disease, 2014. 5(11): p. e1539). After 3-4 days of culture, the neurospheres were collected, suspended in NSC medium, dissociated into single cells, and plated for the assays. For the long-term treatment of cells, NSC or complete medium containing drugs was replaced every two to three days.
The human U87MG cells or GSCs were seeded at a density of 3×10^3 cells/well. After 24 h, the cells were treated from one to seven days with fresh growth medium containing different concentrations of SA16, SA23 or IB35. Following the treatment period, cell proliferation was determined using the MTS assay according to manufacturer's instruction. The absorbance of formazan at […] was measured in a colorimetric assay with an automated plate reader (Victor Wallac 2, Perkin Elmer). The results were calculated by subtracting the mean background from the values obtained from each evaluation and were expressed as the percentage of the control (untreated cells). Sigmoid dose-response curve was generated, from which the IC50 values were derived.
The inhibition of PDK1 has been reported as potentially effective therapeutic approach to reduce self-renewal and propagation of GSCs (Signore, M., et al., Combined PDK1 and CHK1 inhibition is required to kill glioblastoma stem-like cells in vitro and in vivo. Cell death & disease, 2014. 5(5): p. e1223). On this basis, the effects of SA16, SA23 and IB35 on GSCs, isolated from U87MG cells as previously reported, were evaluated (Daniele, S., et al., Modulation of A1 and A28 adenosine receptor activity: a new strategy to sensitise glioblastoma stem cells to chemotherapy. Cell death & disease, 2014. 5(11): p. e1539). U87MG-derived GSCs were incubated with the indicated concentrations of IB35, SA23 or SA16 for four days (FIG. 8) or seven days (FIG. 9). At the end of the treatment periods, cell proliferation was measured using the MTS assay. The data were expressed as a percentage with respect to that of untreated cells (control), which was set to 100%, and are the mean values±SEM of three independent experiments, each performed in duplicate. IC50 values after seven days of treatment were calculated from sigmoid dose-response curve (FIG. 9). The significance of the differences was determined with a one-way ANOVA with Bonferroni post-test (** p<0.01, *** p<0.001 vs. control).
On the technique in general: Tetrazolium dyes change colour on reduction, which living cells bring about.

Assay [2] relates to U87MG cells. The experiment in a line: Annexin V and 7-AAD staining in U87MG cells (apoptosis). The note with it: 10 μM, 72 h. The class given is cell-based, human. As to the method:
(§1) Dual staining with Annexin V coniugated to fluorescein-isothiocyanate (FITC) and 7-amino-actinomysin (7-AAD) was performed using the commercially available kit (Muse Annexin V and Dead Cell Kit; Merck KGaA, Darmstadt, Germany). U87MG cells or GSCs were treated with DMSO (control), SA16, SA23 or IB35 for 72 h or seven days, respectively. At the end of the treatment periods, the percentages of living, apoptotic and dead cells were acquired and analysed by Muse™ Cell Analyzer as previously described (Daniele, S., et al., Combined inhibition of AKT/mTOR and MDM2 enhances Glioblastoma Multiforme cell apoptosis and differentiation of cancer stem cells. Sci. Rep., 2015. 5.).
It was then investigated whether the reduction in cell proliferation elicited by the PDK1 inhibitors could be associated with apoptosis. U87MG cells were treated for 72 h with DMSO (control), or 10 μM SA16, SA23 or IB35. At the end of the treatment period, the cells were collected, and the level of phosphatidylserine externalisation was evaluated using the Annexin V-staining protocol, as described above (FIG. 3). In FIG. 4 the data are expressed as the percentage of apoptotic cells (the data for the early-stage apoptotic cells shown in white, and the data for the late-stage apoptotic/necrotic cells shown in grey) versus the total number of cells. The data shown represented the mean±SEM of three different experiments. The significance of the differences was determined with a one-way ANOVA with Bonferroni post-test (*** p<0.001 vs. control).

Assay [3] has as its system GSCs isolated from U87MG cells. The experiment in a line: Annexin V and 7-AAD staining in GSCs (apoptosis). The assay is classed as cell-based, human. The conditions noted are these: 10 μM, 7 days. As to the method:
as §1
It was investigated if the reduction of cell proliferation elicited by the two compounds could be associated to cell apoptosis. […] At the end of treatments, the cells were collected and the degree of phosphatidylserine externalisation was evaluated using the Annexin V protocol, as above described (FIG. 10). The data were expressed as the percentage of apoptotic cells (early-apoptotic in white, late-apoptotic/necrotic in grey) relative to the total number of cells and represented in FIG. 11. […] The significance of the differences was determined with a one-way ANOVA with Bonferroni post-test (*** p<0.001 vs. control).

The target of assay [4] is AKT1 (PKB alpha) (Homo sapiens (Human), UniProt P31749). The experiment in a line: IB35 kinases profiling at 100 nM (ZLYTE). The assay is classed as biochemical. The conditions noted are these: IB35 100 nM, ATP Km app. From the text:
(§2) The results are reported below

In assay [5] the target is CDC42 BPA (MRCKA) (Homo sapiens (Human), UniProt Q5VT25). The assay is described as follows: IB35 kinases profiling at 100 nM (ZLYTE). The class given is biochemical. The conditions noted are these: IB35 100 nM, ATP Km app.
Text: as §2

For assay [6], the target named is CLK1 (Homo sapiens (Human), UniProt P49759). The assay is described as follows: IB35 kinases profiling at 100 nM (ZLYTE). The class given is biochemical. The note with it: IB35 100 nM, ATP Km app.
Text: as §2

Assay [7] concerns the target IRAK4 (Homo sapiens (Human), UniProt Q9NWZ3). The assay is described as follows: IB35 kinases profiling at 100 nM (ZLYTE). The class given is biochemical. The conditions noted are these: IB35 100 nM, ATP Km app.
Text: as §2

In assay [8] the target is MAPKAPK2 (Homo sapiens (Human), UniProt P49137). The assay is described as follows: IB35 kinases profiling at 100 nM (ZLYTE). The assay is classed as biochemical. The conditions noted are these: IB35 100 nM, ATP Km app.
Text: as §2

Assay [9] deals with ROCK1 (Homo sapiens (Human), UniProt Q13464). The experiment in a line: IB35 kinases profiling at 100 nM (ZLYTE). The class given is biochemical. The conditions noted are these: IB35 100 nM, ATP Km app.
Text: as §2

Assay [10] concerns the target SRC (Homo sapiens (Human), UniProt P12931). The assay is described as follows: IB35 kinases profiling at 100 nM (ZLYTE). The class given is biochemical. The conditions noted are these: IB35 100 nM, ATP Km app.
Text: as §2

Sequence of CDC42 BPA (MRCKA) (Q5VT25 whole entry): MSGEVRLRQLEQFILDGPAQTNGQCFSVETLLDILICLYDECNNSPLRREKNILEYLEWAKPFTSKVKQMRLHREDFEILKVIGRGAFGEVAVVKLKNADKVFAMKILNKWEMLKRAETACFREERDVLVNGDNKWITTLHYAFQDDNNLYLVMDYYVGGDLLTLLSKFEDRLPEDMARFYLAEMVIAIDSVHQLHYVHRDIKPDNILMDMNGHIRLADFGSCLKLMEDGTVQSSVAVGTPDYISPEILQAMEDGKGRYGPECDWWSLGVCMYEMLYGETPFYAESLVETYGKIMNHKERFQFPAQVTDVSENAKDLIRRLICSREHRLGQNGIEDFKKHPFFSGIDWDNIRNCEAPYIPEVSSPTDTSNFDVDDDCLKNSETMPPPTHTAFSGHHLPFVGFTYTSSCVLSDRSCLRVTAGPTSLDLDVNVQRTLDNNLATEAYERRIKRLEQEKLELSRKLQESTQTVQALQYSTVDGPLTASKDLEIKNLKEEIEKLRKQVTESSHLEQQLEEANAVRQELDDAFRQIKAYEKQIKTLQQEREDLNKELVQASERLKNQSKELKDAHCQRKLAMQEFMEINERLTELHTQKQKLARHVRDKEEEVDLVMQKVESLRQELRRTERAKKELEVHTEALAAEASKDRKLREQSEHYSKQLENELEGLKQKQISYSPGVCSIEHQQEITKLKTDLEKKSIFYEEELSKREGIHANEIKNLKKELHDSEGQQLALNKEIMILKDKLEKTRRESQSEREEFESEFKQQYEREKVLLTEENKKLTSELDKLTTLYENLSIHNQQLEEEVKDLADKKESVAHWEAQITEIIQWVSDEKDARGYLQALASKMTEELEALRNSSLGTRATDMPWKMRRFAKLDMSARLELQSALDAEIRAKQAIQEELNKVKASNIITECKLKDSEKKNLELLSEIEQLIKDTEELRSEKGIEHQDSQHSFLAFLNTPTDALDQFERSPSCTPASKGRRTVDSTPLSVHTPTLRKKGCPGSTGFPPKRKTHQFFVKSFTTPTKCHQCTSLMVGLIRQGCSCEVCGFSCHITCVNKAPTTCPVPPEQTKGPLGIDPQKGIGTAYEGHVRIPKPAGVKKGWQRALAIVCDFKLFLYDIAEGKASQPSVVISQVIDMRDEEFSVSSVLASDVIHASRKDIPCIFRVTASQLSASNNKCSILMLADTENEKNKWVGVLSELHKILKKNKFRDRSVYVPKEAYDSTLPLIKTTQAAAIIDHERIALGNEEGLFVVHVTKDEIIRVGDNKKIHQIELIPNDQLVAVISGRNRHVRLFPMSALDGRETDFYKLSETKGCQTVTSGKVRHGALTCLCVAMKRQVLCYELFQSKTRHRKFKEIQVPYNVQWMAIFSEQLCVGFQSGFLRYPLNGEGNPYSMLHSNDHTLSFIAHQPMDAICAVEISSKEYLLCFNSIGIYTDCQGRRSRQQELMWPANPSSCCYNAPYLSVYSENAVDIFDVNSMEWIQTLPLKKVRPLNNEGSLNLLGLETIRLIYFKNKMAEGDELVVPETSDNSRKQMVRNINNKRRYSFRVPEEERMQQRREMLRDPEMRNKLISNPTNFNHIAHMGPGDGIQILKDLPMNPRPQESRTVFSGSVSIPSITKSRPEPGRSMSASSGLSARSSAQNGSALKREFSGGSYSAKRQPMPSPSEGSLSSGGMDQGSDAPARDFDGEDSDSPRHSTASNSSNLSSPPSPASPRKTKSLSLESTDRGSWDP
Sequence of SRC (P12931 whole entry, looked up, species assumed): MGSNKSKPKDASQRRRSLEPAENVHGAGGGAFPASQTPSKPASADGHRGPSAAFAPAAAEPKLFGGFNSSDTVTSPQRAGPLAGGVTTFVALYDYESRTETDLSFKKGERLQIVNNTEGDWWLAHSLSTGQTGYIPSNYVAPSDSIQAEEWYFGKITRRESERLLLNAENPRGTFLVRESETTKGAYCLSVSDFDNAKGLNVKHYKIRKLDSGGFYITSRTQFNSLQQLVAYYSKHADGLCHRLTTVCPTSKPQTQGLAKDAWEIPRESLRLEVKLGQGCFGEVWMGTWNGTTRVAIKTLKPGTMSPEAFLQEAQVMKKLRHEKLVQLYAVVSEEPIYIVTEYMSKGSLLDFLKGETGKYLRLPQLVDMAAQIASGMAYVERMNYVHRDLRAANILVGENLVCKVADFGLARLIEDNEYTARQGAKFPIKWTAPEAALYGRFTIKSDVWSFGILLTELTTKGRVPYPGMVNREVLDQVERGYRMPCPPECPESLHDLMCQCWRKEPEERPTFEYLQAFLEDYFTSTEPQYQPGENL
Sequence of MAPKAPK2 (P49137 whole entry, species assumed): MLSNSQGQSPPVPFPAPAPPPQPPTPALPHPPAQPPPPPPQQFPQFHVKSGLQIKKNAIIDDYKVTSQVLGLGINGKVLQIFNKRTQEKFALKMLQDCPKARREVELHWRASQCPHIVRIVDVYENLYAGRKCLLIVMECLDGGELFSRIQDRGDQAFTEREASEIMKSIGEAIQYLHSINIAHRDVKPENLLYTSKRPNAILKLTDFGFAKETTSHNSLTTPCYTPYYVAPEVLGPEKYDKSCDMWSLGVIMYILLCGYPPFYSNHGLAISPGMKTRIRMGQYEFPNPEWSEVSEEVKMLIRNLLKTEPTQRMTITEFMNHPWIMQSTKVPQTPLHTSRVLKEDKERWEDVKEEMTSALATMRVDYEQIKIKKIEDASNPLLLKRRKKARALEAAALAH
Sequence of AKT1 (PKB alpha) (P31749 whole entry): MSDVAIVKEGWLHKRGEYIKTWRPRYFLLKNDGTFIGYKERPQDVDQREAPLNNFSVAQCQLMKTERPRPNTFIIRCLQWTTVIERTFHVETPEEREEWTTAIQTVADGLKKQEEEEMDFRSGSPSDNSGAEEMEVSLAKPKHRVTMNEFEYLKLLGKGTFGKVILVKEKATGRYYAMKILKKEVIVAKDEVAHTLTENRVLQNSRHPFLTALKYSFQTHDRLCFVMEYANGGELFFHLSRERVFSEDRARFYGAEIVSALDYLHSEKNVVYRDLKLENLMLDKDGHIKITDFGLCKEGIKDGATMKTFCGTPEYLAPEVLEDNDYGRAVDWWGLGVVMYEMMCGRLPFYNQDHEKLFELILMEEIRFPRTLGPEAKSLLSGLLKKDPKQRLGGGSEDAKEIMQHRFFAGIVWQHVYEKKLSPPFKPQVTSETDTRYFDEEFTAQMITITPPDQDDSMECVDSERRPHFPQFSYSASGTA
Sequence of ROCK1 (Q13464 whole entry, species assumed): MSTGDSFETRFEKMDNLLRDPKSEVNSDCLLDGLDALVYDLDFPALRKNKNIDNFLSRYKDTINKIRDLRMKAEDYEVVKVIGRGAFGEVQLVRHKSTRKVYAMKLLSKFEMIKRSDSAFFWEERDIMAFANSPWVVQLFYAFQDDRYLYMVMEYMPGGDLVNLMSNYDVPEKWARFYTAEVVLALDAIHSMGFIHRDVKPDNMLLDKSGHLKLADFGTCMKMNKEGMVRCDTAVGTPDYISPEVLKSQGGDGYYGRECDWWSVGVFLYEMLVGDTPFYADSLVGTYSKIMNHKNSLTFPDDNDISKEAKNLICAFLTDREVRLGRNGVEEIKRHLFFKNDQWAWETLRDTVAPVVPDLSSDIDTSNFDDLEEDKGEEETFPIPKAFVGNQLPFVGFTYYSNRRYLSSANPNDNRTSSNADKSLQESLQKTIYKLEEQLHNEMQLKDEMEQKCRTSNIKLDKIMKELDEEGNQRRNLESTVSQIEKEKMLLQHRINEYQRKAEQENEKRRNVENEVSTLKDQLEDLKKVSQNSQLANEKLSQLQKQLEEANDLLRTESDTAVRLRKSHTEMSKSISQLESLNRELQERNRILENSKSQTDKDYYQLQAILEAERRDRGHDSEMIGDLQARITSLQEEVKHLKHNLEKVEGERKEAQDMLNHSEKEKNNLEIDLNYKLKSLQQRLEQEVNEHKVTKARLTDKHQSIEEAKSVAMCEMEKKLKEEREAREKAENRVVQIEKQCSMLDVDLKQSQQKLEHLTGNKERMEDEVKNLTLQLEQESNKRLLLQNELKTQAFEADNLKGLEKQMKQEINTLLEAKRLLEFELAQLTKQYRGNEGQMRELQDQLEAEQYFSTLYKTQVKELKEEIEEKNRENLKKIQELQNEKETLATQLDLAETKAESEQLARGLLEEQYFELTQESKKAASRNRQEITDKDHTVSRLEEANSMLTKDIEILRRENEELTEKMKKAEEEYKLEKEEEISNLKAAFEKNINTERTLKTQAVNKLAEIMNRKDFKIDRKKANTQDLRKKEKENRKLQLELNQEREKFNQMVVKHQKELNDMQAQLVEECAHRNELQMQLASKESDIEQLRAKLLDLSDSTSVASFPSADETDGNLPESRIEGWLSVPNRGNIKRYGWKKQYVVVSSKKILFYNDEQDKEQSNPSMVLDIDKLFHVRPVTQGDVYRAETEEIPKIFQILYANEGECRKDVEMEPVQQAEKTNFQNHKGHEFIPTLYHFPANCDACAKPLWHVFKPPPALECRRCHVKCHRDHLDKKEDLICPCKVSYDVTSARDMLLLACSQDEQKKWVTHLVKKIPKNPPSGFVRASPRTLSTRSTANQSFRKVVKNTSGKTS
Sequence of IRAK4 (Q9NWZ3 whole entry, species assumed): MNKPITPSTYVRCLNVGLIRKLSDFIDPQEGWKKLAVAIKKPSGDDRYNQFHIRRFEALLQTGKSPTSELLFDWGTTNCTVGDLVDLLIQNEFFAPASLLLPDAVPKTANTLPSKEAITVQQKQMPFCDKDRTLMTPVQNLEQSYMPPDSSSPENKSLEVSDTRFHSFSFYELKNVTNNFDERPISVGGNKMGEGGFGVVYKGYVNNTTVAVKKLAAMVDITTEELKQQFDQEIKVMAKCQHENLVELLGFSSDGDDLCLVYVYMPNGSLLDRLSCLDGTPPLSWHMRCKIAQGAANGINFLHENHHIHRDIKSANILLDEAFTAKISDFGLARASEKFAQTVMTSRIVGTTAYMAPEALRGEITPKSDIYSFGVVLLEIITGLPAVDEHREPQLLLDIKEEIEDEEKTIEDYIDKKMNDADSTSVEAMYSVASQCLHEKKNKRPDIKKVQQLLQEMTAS

A word on the IC50: it is the point on the concentration scale where inhibition reaches its midpoint. High values mean weaker potency, low ones greater potency. One may read the inhibition as the drop in the measured response relative to a control, in per cent. Turning to `O=C(CNC(=O)c1cccn(Cc2ccc(F)c(F)c2)c1=O)Nc1ccc2c(c1)/C(=C/c1cnc[nH]1)C(=O)N2` [IB35, (Z)—N-(2-((3-((1H-imidazol-5-yl)methylene)-2-oxoindolin-5-yl)amino)-2-oxoethyl)-1-(3,4-difluorobenzyl)-2-oxo-1,2-dihydro pyridine-3-carboxamide], the IC50 in assay [1] is 3.36 ± 0.4 nM. Also, the “inhibition of GSC proliferation” value in assay [1] is “significant inhibition”. Further, the entries for the “percentage of total apoptotic cells” value in assay [2] and in assay [3] were 23.0±1.9% and 38.5±3.9%, respectively. In assay [2], the “phosphatidylserine externalization (early and late apoptosis/death)” value was “significant phosphatidylserine externalization”. Besides, the inhibition at 0.1 µM was -6% in assay [4] (read-out: % Inhibition 1); -9% in assay [4] (read-out: % Inhibition 2); -8% in assay [4] (read-out: % Inhibition Avg); -1% in [5] (read-out: % Inhibition 1); -6% in [5] (read-out: % Inhibition 2); -3% in assay [5] (read-out: % Inhibition Avg). The inhibition at 0.1 µM in assay [6] (read-out: % Inhibition 1) was 4%; in assay [6] (read-out: % Inhibition 2) it was -7%; in [6] (read-out: % Inhibition Avg), -2%; in assay [7] (read-out: % Inhibition 1) it was 3%; in assay [7] (read-out: % Inhibition 2), -14%; in [7] (read-out: % Inhibition Avg), -6%. The inhibition at 0.1 µM in assay [8] (read-out: % Inhibition 1) was -2%; in assay [8] (read-out: % Inhibition 2), 2%; in assay [8] (read-out: % Inhibition Avg), 0%; in [9] (read-out: % Inhibition 1), -9%; in assay [9] (read-out: % Inhibition 2), -6%; in [9] (read-out: % Inhibition Avg), -7%. The inhibition at 0.1 µM in [10] (read-out: % Inhibition 1) was found to be 8%; in assay [10] (read-out: % Inhibition 2), 6%; in assay [10] (read-out: % Inhibition Avg), 7%.

Consider `O=C1Nc2ccc(NC(=O)[C@H](NC(=O)c3cccn(Cc4ccc(F)c(F)c4)c3=O)c3ccccc3)cc2/C1=C/c1ncc[nH]1` [SA23, (Z)—(R)—N-(2-((3-((1H-imidazol-2-yl)methylene)-2-oxoindolin-5-yl)amino)-2-oxo-1-phenylethyl)-1-(3,4-difluorobenzyl)-2-oxo-1,2-dihydropyridine-3-carboxamide], for which, in assay [1], the midpoint of inhibition, the IC50, lay at 0.3 ± 0.04 nM and the “inhibition of GSC proliferation” value is reported as “significant inhibition”. In addition, the “phosphatidylserine externalization (early and late apoptosis/death)” value in assay [2] is “significant phosphatidylserine externalization”.
